Assay results as given in patent publication US10189873B2, “Compositions and methods for inhibiting “stimulator of interferon gene”-dependent signalling” (ADURO BIOTECH, INC., priority 2013, dated 2019).

Target: T1, human STING (Homo sapiens, UniProt Q86WV6, G230A/H232R/R293Q/R71H)
T1 construct: THP1-Blue™ ISG cells (a human monocyte cell line transfected with an IRF-inducible secreted embryonic alkaline phosphatase reporter gene); host or cells: THP1-Blue ISG cells (human monocyte cell line)
Experiment: Inhibition of ML RR-CDA-mediated induction of type I IFN in THP1-Blue ISG reporter cells (QUANTI-Blue, A655)
Format: cell-based
Text: To evaluate if the antagonist 2′-O-propargyl-cyclic-[A(2′,5′)pA(3′,5′)p] (ML-propargyl-CDA) can inhibit STING-dependent induction of type I interferon induction by Rp, Rp dithio cyclic [A(2′,5′)pA(3′,5′)p] (ML RR-CDA) in human cells, 4×10^5 THP1-Blue™ ISG cells (a human monocyte cell line transfected with an IRF-inducible secreted embryonic alkaline phosphatase reporter gene (Invivogen) which express alkaline phosphatase under the control of a promoter comprised of five IFN-stimulated response elements) were incubated with 50 μM of Rp, Rp dithio cyclic [A(2′,5′)pA(3′,5′)p] (ML RR-CDA), 10 μM or 50 μM of the antagonist 2′-O-propargyl-cyclic-[A(2′,5′)pA(3′,5′)p] (ML-propargyl-CDA), both 50 μM Rp, Rp dithio cyclic [A(2′,5′)pA(3′,5′)p] (ML RR-CDA) and 10 μM or 50 μM 2′-O-propargyl-cyclic-[A(2′,5′)pA(3′,5′)p] (ML-propargyl-CDA), or 50 μM Rp, Rp dithio cyclic [A(2′,5′)pA(3′,5′)p] (ML RR-CDA) after a 30 min pre-incubation with 10 μM 2′-O-propargyl-cyclic-[A(2′,5′)pA(3′,5′)p] (ML-propargyl-CDA). After 30 minutes, cells were washed and plated in 96-well dish in RPMI media containing 10% FBS, and incubated at 37° C. with 5% CO2. Cell culture supernatants from each sample were collected after 16 hr incubation, and 20 μL of the cell culture supernatants was added to 180 μL QUANTI-Blue reagent (Invivogen) and incubated for 5 minutes to evaluate type I interferon protein levels. Readings at Absorbance 655 nm were measured with a Versa Max kinetic spectrophotometer ([…]).

T1 sequence (Q86WV6 whole entry R71H/G230A/H232R/R293Q): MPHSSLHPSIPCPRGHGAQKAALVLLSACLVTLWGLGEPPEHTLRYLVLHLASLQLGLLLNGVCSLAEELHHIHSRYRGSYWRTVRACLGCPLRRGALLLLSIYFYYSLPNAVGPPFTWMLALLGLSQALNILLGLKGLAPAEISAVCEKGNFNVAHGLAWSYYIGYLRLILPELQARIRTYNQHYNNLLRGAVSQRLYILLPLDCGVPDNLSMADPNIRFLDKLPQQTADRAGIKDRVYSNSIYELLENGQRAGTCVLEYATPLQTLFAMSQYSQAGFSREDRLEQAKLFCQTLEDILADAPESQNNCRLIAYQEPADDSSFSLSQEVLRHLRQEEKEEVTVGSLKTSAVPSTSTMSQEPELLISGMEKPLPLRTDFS

C#CCO[C@@H]1[C@@H]2OP(=O)(O)OC[C@H]3O[C@@H](n4cnc5c(N)ncnc54)[C@H](OP(=O)(O)OC[C@H]2O[C@H]1n1cnc2c(N)ncnc21)[C@@H]3O [ML-propargyl-CDA, 2′-O-propargyl-cyclic-A(2′,5′)pA(3′,5′)p]
inhibition of induction of type I IFN by ML RR-CDA (THP1-Blue ISG cells, 10 μM or 50 μM antagonist added simultaneously with 50 μM ML RR-CDA, FIG. 7A): significantly inhibited
inhibition of induction of type I interferon by ML RR-CDA (THP1-Blue ISG cells, 30 min pre-incubation with 10 μM antagonist, then 50 μM ML RR-CDA, FIG. 7B): inhibits
functional character at human STING (concluded from reduction of ML RR-CDA-induced type I IFN production in THP1-Blue ISG cells): antagonist of human STING
